According to PubChem BioAssay AID463199 (Broad Institute, 2010):
The source made the active and inactive calls.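 Rule for the calls: active = AC50, the dose giving half-maximal effect, exceeds a fixed cutoff for a compound that rescues yeast growth under heat; inactive = the rest, inconclusive results apart.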

These compounds were tested on S. cerevisiae Burl-1 ts mutant growth, BacTiter-Glo, 38.5C 24 h (assay: growth induction of Burl-1 ts yeast mutant, dose response, counter-screen for SUMOylation pathway inhibitor project, whole organism, S. cerevisiae, luminescence (AID 463199)).
In the case of `CCOC(=O)C1=C[C@]2(CC)CCCN3CCc4c(n1c1ccccc41)[C@@H]32`, the AC50 is reported as > 42 µM (inactive). With `C/C(=N/OCO/N=C(\C)c1ccccc1)c1ccccc1` the AC50 was > 42 µM (inactive). For `S=c1[nH]nc(-c2ccco2)n1-c1ccc(Br)cc1`, the AC50 was > 42 µM (inactive). With `CCNC(=O)COc1ccc(S(=O)(=O)Nc2ccccc2)cc1` the AC50 was > 21 µM (inactive). `CCOC(=O)C1CCN(C(=O)COc2ccc(S(=O)(=O)N3CCOCC3)cc2C)CC1` was tested, and the AC50 was > 42 µM (inactive). In the case of `CCN(CC)C(=O)Cn1c(=O)n(CCCC(=O)NCc2ccccc2)c(=O)c2sccc21`, the AC50 is reported as > 42 µM (inactive). With `CC1(C)CC(=O)C=C(OC(=O)c2ccc(Cl)cc2)C1` the AC50 was > 42 µM (inactive). For `COc1ccc(/C=C(\C#N)C(=O)NCCCn2ccnc2)cc1`, the AC50 was > 42 µM (inactive). For `CCn1nccc1C(=O)Nc1ccccc1OC`, the AC50 was > 42 µM (inactive). For `Oc1ccc(Br)cc1/C=N/n1c(COc2ccccc2)n[nH]c1=S`, the AC50 was > 42 µM (inactive). In the case of `CCCCCCCCCCOC(=O)Cn1c(COc2ccccc2OC)[n+](C)c2ccccc21`, the AC50 is reported as > 42 µM (inactive). For `Cc1ccc(O)c(CNc2nc3ccccc3n2C)c1`, the AC50 was > 42 µM (inactive). For `CSc1nncc(/C(C)=N\Nc2cccc(C)c2)n1`, the AC50 was > 42 µM (inactive). For `O=Cc1ccccc1OCCN1CCCC1=O`, the AC50 was > 42 µM (inactive). In the case of `Cc1ccc(S(=O)(=O)Oc2ccc(/C=C3\N=C(c4cccc(C)c4)OC3=O)cc2)cc1`, the AC50 is reported as > 42 µM (inactive). In the case of `COc1ccc(C(=O)Nc2ccccc2C(=O)NCCN2CCOCC2)cc1OC`, the AC50 is reported as > 42 µM (inactive). With `CCn1cc(C(=O)N(C)c2ccc(OC)cc2OC)c2cc(OC)c(OC)cc2c1=O` the AC50 was > 42 µM (inactive). With `O=C1c2cc(N3CCCC3)c([N+](=O)[O-])cc2C(=O)N1c1ccccc1` the AC50 was > 42 µM (inactive). For `CCOC(=O)c1cc2sc(C)cc2n1CC(=O)Nc1ccc2c(c1)OCCO2`, the AC50 was > 42 µM (inactive). With `COc1ccccc1N1CCN(C(=O)C(=O)N/N=C/c2ccccc2F)CC1` the AC50 was > 42 µM (inactive). Work on `Cc1ccc(C(C[N+](=O)[O-])c2c(C)[nH]n(-c3ccccc3)c2=O)cc1` (configuration not stated) yielded an AC50 of 39.7 µM. For `O=C1CCCC2=C1C(c1ccncc1)c1c(nc(SCc3ccccc3Cl)[nH]c1=O)N2` (configuration not stated), the AC50 was > 42 µM (inactive). In the case of `CC(C)NC(=O)CCCc1cn(C)c2ccccc12`, the AC50 is reported as > 42 µM (inactive). For `CCCOC(=O)c1ccc(O)c(OC)c1`, the AC50 was > 42 µM (inactive). `COc1cccc(-n2c(Cc3cc(=O)[nH]c(=O)[nH]3)nnc2SCc2cccnc2)c1` was tested, and the AC50 was > 42 µM (inactive). For `Cc1nc(NC(=O)CSc2nc(N)cc(N)n2)sc1C`, the AC50 was > 42 µM (inactive). `CCOP(=O)(OCC)C(NC(=O)c1cccc([N+](=O)[O-])c1)C(Cl)(Cl)Cl` (configuration not stated) was tested, and the AC50 was > 42 µM (inactive). With `CC(=O)c1ccc2noc(-c3ccc(F)cc3)c2c1` the AC50 was > 42 µM (inactive). For `Cc1ccc(NS(=O)(=O)c2ccc(NC(=O)C3CCCO3)cc2)cc1` (configuration not stated), the AC50 was > 42 µM (inactive). In the case of `Cc1ccc2nc(NC(=O)CNS(=O)(=O)c3ccc(Br)s3)sc2c1`, the AC50 is reported as > 42 µM (inactive). In the case of `Cc1ccc2c(c1)C(O)(CC(=O)c1cccnc1)C(=O)N2` (configuration not stated), the AC50 is reported as > 42 µM (inactive). For `Fc1ccc2c(c1)nnn2C1CCN(Cc2nnnn2C2CCCCC2)CC1`, the AC50 was > 42 µM (inactive). For `COc1ccc(NC(=O)CN(c2ccc(C(C)C)cc2)S(=O)(=O)c2c(C)noc2C)cc1OC`, the AC50 was > 42 µM (inactive). Compound `C=C1C(O)[C@@H]2O[C@]3(CC[C@H](/C=C/C(C)[C@@H]4CC(C)=CC5(O[C@H](C[C@@](C)(O)C(=O)O)CCC5O)O4)O3)CC[C@H]2O[C@@H]1C(O)CC(C)[C@H]1OC2(CCCCO2)CCC1C` (some centres not stated) has an AC50 of 4.06 µM. With `CCOc1ccc(N(CC(=O)NC2CCC(C)CC2)S(=O)(=O)c2c(C)noc2C)cc1` (configuration not stated) the AC50 was > 42 µM (inactive). With `COc1ccc2c(Cl)c(C(=O)NN3CCN(C)CC3)sc2c1` the AC50 was > 42 µM (inactive). In the case of `O=[N+]([O-])c1ccc(N/N=C/c2cccc(O)c2)cc1`, the AC50 is reported as > 42 µM (inactive).
